# In US11969428B2, “Methods and pharmaceutical compositions for treating lymphoid malignancy” (priority 2011, dated 2024):
# Columns and labels:
# Assay in all cases: Ambit KinomeScan screening
# Assay type in all cases: binding
# Conditions in all cases: CAL-130 10 μM
# ACVR1B = molecular target: T1, ACVR1B (Homo sapiens, UniProt P36896)
# T1 construct: unspecified tag ("tagged kinases"); purchased Ambit (KinomeScan screening)
# Protocol: (§1) CAL-130 (10 μM) was evaluated for its ability to prevent tagged kinases from interacting with immobilized “bait” ligand (Karaman et al., 2008). Results are reported as “% of control binding”, where lower numbers indicate stronger interactions with the tagged kinase. Values of >35% are considered “no hits”. PI3Kδ had the lowest percentage of control binding at 0.2% followed by PI3Kγ at 3.2% (See Table 1 below). These values indicate a high probability of a potent interaction. 353 kinases were assessed in the screen (Table 2).
# AMPK-α2 = molecular target: T2, AMPK-α2 (Homo sapiens, UniProt P54646)
# T2 construct: purchased Ambit (KinomeScan screening)
# Protocol: as §1
# ANKK1 = molecular target: T3, ANKK1 (Homo sapiens, UniProt Q8NFD2)
# T3 construct: purchased Ambit (KinomeScan screening)
# Protocol: as §1
# CAMK1 = molecular target: T4, CAMK1 (Homo sapiens, UniProt Q14012)
# T4 construct: unspecified tag ("tagged kinases"); purchased Ambit (KinomeScan screening)
# T4 sequence (Q14012 whole entry): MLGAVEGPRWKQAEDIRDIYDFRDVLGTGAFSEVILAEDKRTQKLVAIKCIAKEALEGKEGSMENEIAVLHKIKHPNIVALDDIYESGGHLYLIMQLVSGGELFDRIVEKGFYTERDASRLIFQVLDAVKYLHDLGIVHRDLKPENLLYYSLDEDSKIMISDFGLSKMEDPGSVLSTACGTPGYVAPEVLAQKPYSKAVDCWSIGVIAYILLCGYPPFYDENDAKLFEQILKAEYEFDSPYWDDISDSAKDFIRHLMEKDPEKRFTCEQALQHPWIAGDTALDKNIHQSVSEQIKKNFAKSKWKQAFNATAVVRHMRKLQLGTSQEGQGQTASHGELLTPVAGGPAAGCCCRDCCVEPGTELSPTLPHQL
# Protocol: as §1
# CDC2L2 = molecular target: T5, CDC2L2 (Homo sapiens, UniProt Q9UQ88)
# T5 construct: purchased Ambit (KinomeScan screening)
# Protocol: as §1
# CDK11 = molecular target: T6, CDK11 (Homo sapiens, UniProt Q9BWU1)
# T6 construct: purchased Ambit (KinomeScan screening)
# Protocol: as §1
# CSNK1D = molecular target: T7, CSNK1D (Homo sapiens, UniProt P48730)
# T7 construct: purchased Ambit (KinomeScan screening service)
# Protocol: as §1
# DAPK2 = molecular target: T8, DAPK2 (Homo sapiens, UniProt Q9UIK4)
# T8 construct: purchased Ambit (KinomeScan screening service)
# Protocol: as §1
# EGFR = molecular target: T9, EGFR (Homo sapiens, UniProt P00533)
# T9 construct: unspecified tag; purchased Ambit (KinomeScan screening service)
# Protocol: as §1
# EPHB2 = molecular target: T10, EPHB2 (Homo sapiens, UniProt P29323)
# T10 construct: purchased Ambit (KinomeScan screening service)
# Protocol: as §1
# ERBB3 = molecular target: T11, ERBB3 (Homo sapiens, UniProt P21860)
# T11 construct: unspecified tag ("tagged kinases"); purchased Ambit (KinomeScan screening service)
# Protocol: as §1
# ERK1 = molecular target: T12, ERK1 (Homo sapiens, UniProt P27361)
# T12 construct: unspecified tag ("tagged kinases"); purchased Ambit (KinomeScan screening service)
# Protocol: as §1
# FGFR3 = molecular target: T13, FGFR3 (Homo sapiens, UniProt P22607)
# T13 construct: unspecified tag; purchased Ambit (KinomeScan screening service)
# Protocol: as §1
# KIT(V559D, T670I) = molecular target: T14, KIT(V559D, T670I) (Homo sapiens, UniProt P10721, T670I/V559D)
# T14 construct: unspecified tag ('tagged kinases'); purchased Ambit (KinomeScan screening)
# T14 sequence (P10721 26-976 V559D/T670I): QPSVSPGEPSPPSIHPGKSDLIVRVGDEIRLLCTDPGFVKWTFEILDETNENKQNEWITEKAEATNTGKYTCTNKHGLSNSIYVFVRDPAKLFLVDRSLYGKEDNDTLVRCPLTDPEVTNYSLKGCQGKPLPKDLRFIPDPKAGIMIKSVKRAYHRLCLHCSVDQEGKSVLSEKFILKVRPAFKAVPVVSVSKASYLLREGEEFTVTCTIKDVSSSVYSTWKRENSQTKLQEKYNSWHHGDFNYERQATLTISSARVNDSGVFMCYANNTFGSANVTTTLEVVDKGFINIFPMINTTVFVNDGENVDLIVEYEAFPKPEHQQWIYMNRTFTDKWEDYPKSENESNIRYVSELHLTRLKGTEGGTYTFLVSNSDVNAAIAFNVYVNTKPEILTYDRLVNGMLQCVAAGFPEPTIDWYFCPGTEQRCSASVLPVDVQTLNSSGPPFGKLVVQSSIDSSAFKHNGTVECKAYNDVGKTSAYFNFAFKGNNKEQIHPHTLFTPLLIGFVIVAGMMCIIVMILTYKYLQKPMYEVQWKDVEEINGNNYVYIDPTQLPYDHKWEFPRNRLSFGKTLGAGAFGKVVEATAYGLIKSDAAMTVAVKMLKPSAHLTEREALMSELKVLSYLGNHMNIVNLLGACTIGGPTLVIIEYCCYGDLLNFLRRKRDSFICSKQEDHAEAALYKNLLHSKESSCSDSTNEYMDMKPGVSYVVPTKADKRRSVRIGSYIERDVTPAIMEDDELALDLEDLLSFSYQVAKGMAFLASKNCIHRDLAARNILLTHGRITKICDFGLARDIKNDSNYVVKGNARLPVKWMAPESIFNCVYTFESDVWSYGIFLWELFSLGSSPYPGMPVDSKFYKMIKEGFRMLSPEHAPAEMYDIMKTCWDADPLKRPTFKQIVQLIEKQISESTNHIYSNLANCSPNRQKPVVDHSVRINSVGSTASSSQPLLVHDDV
# Protocol: as §1
# KIT(V559D, V654A) = molecular target: T15, KIT(V559D, V654A) (Homo sapiens, UniProt P10721, V559D/V654A)
# T15 construct: unspecified tag ('tagged kinases'); purchased Ambit (KinomeScan screening service)
# Protocol: as §1
# LKB1 = molecular target: T16, LKB1 (Homo sapiens, UniProt Q15831)
# T16 construct: unspecified tag ('tagged kinases'); purchased Ambit (KinomeScan screening service)
# T16 sequence (Q15831 whole entry): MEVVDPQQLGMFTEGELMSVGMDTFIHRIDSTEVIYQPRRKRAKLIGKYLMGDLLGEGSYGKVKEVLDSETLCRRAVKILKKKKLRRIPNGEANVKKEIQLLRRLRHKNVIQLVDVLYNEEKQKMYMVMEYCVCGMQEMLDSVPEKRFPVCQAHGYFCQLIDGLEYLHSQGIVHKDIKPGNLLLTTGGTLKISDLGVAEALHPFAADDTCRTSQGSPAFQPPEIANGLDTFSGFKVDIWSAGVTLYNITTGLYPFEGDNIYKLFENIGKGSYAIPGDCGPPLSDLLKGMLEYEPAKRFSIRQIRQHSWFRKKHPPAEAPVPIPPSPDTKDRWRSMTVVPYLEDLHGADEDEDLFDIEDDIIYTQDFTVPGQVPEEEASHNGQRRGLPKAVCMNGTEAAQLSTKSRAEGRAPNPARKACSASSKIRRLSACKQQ
# Protocol: as §1
# MAP3K2 = molecular target: T17, MAP3K2 (Homo sapiens, UniProt Q9Y2U5)
# T17 construct: Ambit (KinomeScan screening)
# Protocol: as §1
# MAPKAPK5 = molecular target: T18, MAPKAPK5 (Homo sapiens, UniProt Q8IW41)
# T18 construct: Ambit (KinomeScan screening)
# T18 sequence (Q8IW41 whole entry): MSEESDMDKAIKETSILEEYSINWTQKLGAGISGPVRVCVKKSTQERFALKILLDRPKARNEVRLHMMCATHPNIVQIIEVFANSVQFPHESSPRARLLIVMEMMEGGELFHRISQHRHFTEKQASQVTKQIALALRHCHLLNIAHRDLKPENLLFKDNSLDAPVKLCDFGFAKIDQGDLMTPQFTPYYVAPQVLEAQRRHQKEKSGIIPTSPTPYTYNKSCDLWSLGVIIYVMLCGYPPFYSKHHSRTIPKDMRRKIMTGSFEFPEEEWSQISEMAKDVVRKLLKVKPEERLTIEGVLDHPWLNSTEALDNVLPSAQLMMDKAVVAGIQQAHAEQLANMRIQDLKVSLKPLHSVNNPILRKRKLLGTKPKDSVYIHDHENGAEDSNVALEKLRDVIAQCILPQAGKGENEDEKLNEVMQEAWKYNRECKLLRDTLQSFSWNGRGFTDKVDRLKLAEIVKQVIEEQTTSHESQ
# Protocol: as §1
# MARK1 = molecular target: T19, MARK1 (Homo sapiens, UniProt Q9P0L2)
# T19 construct: Ambit (KinomeScan screening)
# Protocol: as §1
# MET(M1250T) = molecular target: T20, MET(M1250T) (Homo sapiens, UniProt P08581, M1250T)
# T20 construct: purchased Ambit (KinomeScan screening)
# Protocol: as §1
# MKNK2 = molecular target: T21, MKNK2 (Homo sapiens, UniProt Q9HBH9)
# T21 construct: unspecified tag ('tagged kinases'); purchased Ambit (KinomeScan screening)
# Protocol: as §1
# MLK1 = molecular target: T22, MLK1 (Homo sapiens, UniProt P80192)
# T22 construct: unspecified tag ('tagged kinases'); purchased Ambit (KinomeScan screening)
# Protocol: as §1
# NLK = molecular target: T23, NLK (Homo sapiens, UniProt Q9UBE8)
# T23 construct: purchased Ambit (KinomeScan screening service)
# Protocol: as §1
# PAK1 = molecular target: T24, PAK1 (Homo sapiens, UniProt Q13153)
# T24 construct: purchased Ambit (KinomeScan screening service)
# Protocol: as §1
# PAK2 = molecular target: T25, PAK2 (Homo sapiens, UniProt Q13177)
# T25 construct: purchased Ambit (KinomeScan screening service)
# Protocol: as §1
# PAK6 = molecular target: T26, PAK6 (Homo sapiens, UniProt Q9NQU5)
# T26 construct: tag (kind not specified); purchased Ambit (KinomeScan screening service)
# Protocol: as §1
# PIP5K2B = molecular target: T27, PIP5K2B (Homo sapiens, UniProt P78356)
# T27 construct: unspecified tag; purchased Ambit (KinomeScan screening panel)
# T27 sequence (P78356 whole entry): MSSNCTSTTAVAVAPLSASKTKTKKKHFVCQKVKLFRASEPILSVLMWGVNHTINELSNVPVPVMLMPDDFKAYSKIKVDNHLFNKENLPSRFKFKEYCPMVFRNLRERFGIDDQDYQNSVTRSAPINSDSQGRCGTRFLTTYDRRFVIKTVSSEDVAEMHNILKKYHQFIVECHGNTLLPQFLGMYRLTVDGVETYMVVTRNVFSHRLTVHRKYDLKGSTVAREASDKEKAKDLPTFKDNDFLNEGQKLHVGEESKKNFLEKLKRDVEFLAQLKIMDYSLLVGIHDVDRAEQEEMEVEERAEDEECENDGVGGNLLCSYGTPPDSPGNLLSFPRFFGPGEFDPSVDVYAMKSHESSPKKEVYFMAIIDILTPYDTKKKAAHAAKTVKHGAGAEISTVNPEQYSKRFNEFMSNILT
# Protocol: as §1
# PRKD3 = molecular target: T28, PRKD3 (Homo sapiens, UniProt O94806)
# T28 construct: tag (kind not specified); purchased Ambit (KinomeScan screening service)
# T28 sequence (O94806 whole entry): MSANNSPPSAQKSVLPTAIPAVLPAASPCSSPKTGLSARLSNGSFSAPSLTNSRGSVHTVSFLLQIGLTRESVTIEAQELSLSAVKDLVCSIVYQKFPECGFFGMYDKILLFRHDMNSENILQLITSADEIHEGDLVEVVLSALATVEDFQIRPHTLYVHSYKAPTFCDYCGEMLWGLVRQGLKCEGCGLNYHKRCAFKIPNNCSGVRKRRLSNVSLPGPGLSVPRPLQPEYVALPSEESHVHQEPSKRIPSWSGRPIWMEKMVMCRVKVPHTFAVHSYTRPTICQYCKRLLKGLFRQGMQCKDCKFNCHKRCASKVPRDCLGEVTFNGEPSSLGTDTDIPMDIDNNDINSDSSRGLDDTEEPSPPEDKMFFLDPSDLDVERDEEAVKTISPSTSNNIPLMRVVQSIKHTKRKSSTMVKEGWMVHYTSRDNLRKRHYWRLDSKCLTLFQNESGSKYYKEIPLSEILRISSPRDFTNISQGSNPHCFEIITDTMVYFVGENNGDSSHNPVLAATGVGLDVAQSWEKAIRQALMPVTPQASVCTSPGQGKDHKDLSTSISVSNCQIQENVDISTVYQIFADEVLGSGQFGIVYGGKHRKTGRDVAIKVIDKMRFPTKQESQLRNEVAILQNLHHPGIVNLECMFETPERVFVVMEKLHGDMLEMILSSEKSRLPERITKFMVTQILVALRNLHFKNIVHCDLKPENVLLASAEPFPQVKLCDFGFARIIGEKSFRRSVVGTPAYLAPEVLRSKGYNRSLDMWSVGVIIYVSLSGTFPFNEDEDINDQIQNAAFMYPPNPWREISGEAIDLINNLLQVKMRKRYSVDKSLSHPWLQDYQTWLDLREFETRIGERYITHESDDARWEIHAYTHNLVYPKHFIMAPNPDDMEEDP
# Protocol: as §1
# PRKG1 = molecular target: T29, PRKG1 (Homo sapiens, UniProt Q13976)
# T29 construct: tag (kind not specified); purchased Ambit (KinomeScan screening service)
# T29 sequence (Q13976 whole entry): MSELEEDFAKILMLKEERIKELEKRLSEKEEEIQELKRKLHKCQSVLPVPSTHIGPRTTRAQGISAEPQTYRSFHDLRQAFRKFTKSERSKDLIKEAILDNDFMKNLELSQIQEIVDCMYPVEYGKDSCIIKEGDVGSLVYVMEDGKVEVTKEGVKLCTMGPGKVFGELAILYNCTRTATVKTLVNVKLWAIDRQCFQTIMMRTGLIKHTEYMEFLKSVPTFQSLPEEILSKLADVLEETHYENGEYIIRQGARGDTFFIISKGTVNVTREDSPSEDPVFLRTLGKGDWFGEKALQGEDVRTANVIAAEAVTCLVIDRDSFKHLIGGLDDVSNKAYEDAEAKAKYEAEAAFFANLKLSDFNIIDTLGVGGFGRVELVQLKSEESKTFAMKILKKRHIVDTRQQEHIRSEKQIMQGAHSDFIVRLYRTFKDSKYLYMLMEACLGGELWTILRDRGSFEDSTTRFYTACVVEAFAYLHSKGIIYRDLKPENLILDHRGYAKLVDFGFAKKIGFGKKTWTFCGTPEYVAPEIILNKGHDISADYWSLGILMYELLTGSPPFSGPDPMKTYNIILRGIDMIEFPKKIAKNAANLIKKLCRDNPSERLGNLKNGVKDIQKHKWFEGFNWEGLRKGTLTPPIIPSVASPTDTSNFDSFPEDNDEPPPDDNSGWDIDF
# Protocol: as §1
# PRP4 = molecular target: T30, PRP4 (Homo sapiens, UniProt Q13523)
# T30 construct: tag (kind not specified); purchased Ambit (KinomeScan screening service)
# Protocol: as §1
# RET(M918T) = molecular target: T31, RET(M918T) (Homo sapiens, UniProt P07949, M918T)
# T31 construct: tag (kind not specified); purchased Ambit (KinomeScan screening service)
# Protocol: as §1
# RIOK1 = molecular target: T32, RIOK1 (Homo sapiens, UniProt Q9BRS2)
# T32 construct: unspecified tag (tagged kinase); purchased Ambit (KinomeScan screening)
# Protocol: as §1
# RPS6KA5 = molecular target: T33, RPS6KA5 (Homo sapiens, UniProt O75582)
# T33 construct: tag, kind not specified; purchased Ambit (KinomeScan screening service)
# T33 sequence (O75582 whole entry): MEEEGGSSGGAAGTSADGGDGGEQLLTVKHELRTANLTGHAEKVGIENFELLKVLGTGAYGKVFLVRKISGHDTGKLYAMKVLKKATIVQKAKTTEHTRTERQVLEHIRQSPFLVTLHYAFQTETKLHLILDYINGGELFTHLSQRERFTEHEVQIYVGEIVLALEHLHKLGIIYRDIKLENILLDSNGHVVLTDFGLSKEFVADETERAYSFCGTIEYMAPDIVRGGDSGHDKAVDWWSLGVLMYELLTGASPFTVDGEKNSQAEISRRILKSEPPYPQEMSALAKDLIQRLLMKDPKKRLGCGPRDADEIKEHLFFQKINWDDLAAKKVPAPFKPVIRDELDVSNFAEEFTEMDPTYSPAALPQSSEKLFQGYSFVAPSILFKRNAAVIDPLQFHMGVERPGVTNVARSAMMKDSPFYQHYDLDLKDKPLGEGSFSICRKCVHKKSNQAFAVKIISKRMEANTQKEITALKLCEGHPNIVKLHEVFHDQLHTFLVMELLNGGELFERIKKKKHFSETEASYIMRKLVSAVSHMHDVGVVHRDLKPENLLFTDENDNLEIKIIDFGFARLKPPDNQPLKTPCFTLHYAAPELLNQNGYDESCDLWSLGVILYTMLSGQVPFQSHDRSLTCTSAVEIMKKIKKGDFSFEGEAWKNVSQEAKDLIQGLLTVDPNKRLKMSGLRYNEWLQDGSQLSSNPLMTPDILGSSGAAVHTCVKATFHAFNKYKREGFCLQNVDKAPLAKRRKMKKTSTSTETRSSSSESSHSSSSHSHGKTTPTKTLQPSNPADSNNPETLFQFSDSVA
# Protocol: as §1
# STK36 = molecular target: T34, STK36 (Homo sapiens, UniProt Q9NRP7)
# T34 construct: tag (kind not specified); purchased Ambit (KinomeScan screening service)
# Protocol: as §1
# SgK085 = molecular target: T35, SgK085 (Homo sapiens, UniProt Q86YV6)
# T35 construct: tag, kind not specified; purchased Ambit (KinomeScan screening service)
# Protocol: as §1
# TAOK3 = molecular target: T36, TAOK3 (Homo sapiens, UniProt Q9H2K8)
# T36 construct: tag (kind not specified); purchased Ambit (KinomeScan screening service)
# Protocol: as §1
smiles,measurement,setting,value
Cc1ccccc1-n1c(C(C)Nc2nc(N)nc3nc[nH]c23)nc2cccc(C)c2c1=O (stereo not drawn) [CAL-130],Percent of Control Binding,ACVR1B,100%
same,Percent of Control Binding,AMPK-α2,100%
same,Percent of Control Binding,ANKK1,100%
same,Percent of Control Binding,CAMK1,100%
same,Percent of Control Binding,CDC2L2,100%
same,Percent of Control Binding,CDK11,100%
same,Percent of Control Binding,CSNK1D,100%
same,Percent of Control Binding,DAPK2,100%
same,Percent of Control Binding,EGFR,100%
same,Percent of Control Binding,EPHB2,100%
same,Percent of Control Binding,ERBB3,100%
same,Percent of Control Binding,ERK1,100%
same,Percent of Control Binding,FGFR3,100%
same,Percent of Control Binding,"KIT(V559D, T670I)",100%
same,Percent of Control Binding,"KIT(V559D, V654A)",100%
same,Percent of Control Binding,LKB1,100%
same,Percent of Control Binding,MAP3K2,100%
same,Percent of Control Binding,MAPKAPK5,100%
same,Percent of Control Binding,MARK1,100%
same,Percent of Control Binding,MET(M1250T),100%
same,Percent of Control Binding,MKNK2,16%
same,Percent of Control Binding,MLK1,100%
same,Percent of Control Binding,NLK,100%
same,Percent of Control Binding,PAK1,100%
same,Percent of Control Binding,PAK2,100%
same,Percent of Control Binding,PAK6,100%
same,Percent of Control Binding,PIP5K2B,100%
same,Percent of Control Binding,PRKD3,100%
same,Percent of Control Binding,PRKG1,100%
same,Percent of Control Binding,PRP4,100%
same,Percent of Control Binding,RET(M918T),100%
same,Percent of Control Binding,RIOK1,100%
same,Percent of Control Binding,RPS6KA5,100%
same,Percent of Control Binding,STK36,100%
same,Percent of Control Binding,SgK085,100%
same,Percent of Control Binding,TAOK3,100%
